The values below come from patent publication US10344002B2, “Compositions and methods for treating metabolic disorders” (NuSirt Sciences, Inc., priority 2016, dated 2019).

Test [1] relates to C. elegans. Kind of test: Lipid accumulation (Oil Red Staining) in C. elegans. In kind it is in vivo. As to conditions: for lipid accumulation, fold change of control (FIG. 12): 3 days, absorbance normalized to worm number. Here is the method:
(§1) C. elegans culture: Synchronized L1 wild-type worms were transferred to NGM agar plates with the following treatments until adulthood (3 days): 1. control NGM plates, 2. NGM plate with 10 nM Compound 2 added to E. coli suspension, 3. NGM plate with 100 nM Compound 2 added to E. coli suspension.
Lipid accumulation (Oil Red Staining): Worms were washed off the plate with 2×5 ml PBS and collected in centrifuge tubes. The tubes were centrifuged at 1000 g for 30 seconds, then the supernatant was removed and the worm pellet was washed again with 5 ml PBS. Then the supernatant was discarded except approximately 400 ul, to which 200 ul of 10% paraformaldehyde was added and then gently rocked for 60 minutes at room temperature. To remove the paraformaldehyde, worms were centrifuged at 1500 g for 30 sec, then washed 1× with 5 ml PBS, centrifuged and supernatant removed except 400 ul, to which 600 ul of 100% isopropanol was added and mixed by inverting the tube and incubated for 15 minutes at room temperature. After centrifugation, the isopropanol was removed, then 1 ml of 60% filtered OilRed (4 vol ddH2O and 6 vol of OilRed stock (OilRed stock: dilute 0.35 g OilRed O (Sigma Cat #0-0625, FW 408.5) in 100 ml 100% isopropanol, stirred overnight, then filtered (0.2 um) and stored at room temperature), let stand for 15 to 20 min and filter with 0.2 um) was added. Worms were rotated on shaker overnight at room temperature and protected from light. Next day, the worms were centrifuged at 1200 g for 30 seconds, the dye was removed, and worms were washed 4 times with ddH2O. At last washing step, 2 ml of ddH2O was added and worms were counted under microscope in 3×20 ul drops. The worm number was multiplied by 100 to calculate the total worm number for normalization of the absorbance data. Then worm solution was centrifuged again, supernatant removed and 300 ul of 100% isopropanol was added to elute the OilRed. 100 ul aliquots of OilRed-isopropanol in transferred to 96-well plate and the absorbance was measured at 500 nm.

The test system of test [2] is C. elegans. Description: Lifespan of C. elegans under normal and mild oxidative stress (Paraquat) conditions. Type of test: in vivo. As to conditions: for increase of median lifespan: 10 nM and 100 nM, p<0.0002. How it is done: Lifespan Protocol: Wild-type worms were synchronized and hatched L1s were transferred to normal NGM agar plates until L4/young adult stage (3 days). 100 synchronized stage L4 worms per group were picked and placed on NGM agar plates seeded with E. coli strain OP-50 (=day 1 of study). Paraquat was added in the indicated concentration to the agar plates, the Compound 2 concentrations were dissolved in the E. coli suspension. The worms were maintained at 21° C. throughout the duration of the study. Live worms were placed on new plates every day to eliminate progeny.
Statistics: For the statistical analysis of the lifespan study with C. elegans, data were analyzed via Kaplan-Meier survival curves and statistical significance between curves was determined with the Log-rank (Mantel_Cox) test using Prism 6 (GraphPad Software, La Jolla Calif., USA, www.graphpad.com).

The test system of test [3] is AMPK. Description: Western blot, phosphorylated/total AMPK in 3T3L1 adipocytes. In kind it is cell-based. The settings on record: 48 hours; for ratio of phosphorylated/total AMPK (FIG. 5): control approximately 1.52. How it is done:
3T3L1 adipocytes were seeded with 200,000 cells per well on 6-well tissue culture plates in Dulbecco's modified eagle's medium (DMEM) containing 10% fetal bovine serum (FBS) and antibiotics (1% penicillin-streptomycin) at 37° C. in 5% CO2. After reaching confluency (3 days), cells were induced to differentiate with a standard differentiation media (DM2-L1, Zen-Bio Inc., NC) for 3 days, then cells were maintained in DMEM (10% FBS, 1% penicillin-streptomycin) for another 11 days to induce lipid accumulation. Cells were then treated with indicated concentration of Compound 2 for 48 hours.
(§2) Compound 2 was dissolved in 100% DMSO to a stock concentration of 100 mM. This stock was further diluted to indicated concentrations in DMEM media.
(§3) Western blots: Phospho-AMPK, AMPK, Phospho-ACC, ACC antibodies were obtained from Cell Signaling (Danvers, Mass.). Sir2 antibody was obtained from MyBiosource (San Diego, Calif.). Protein levels of cell extracts were measured by BCA kit (Thermo Scientific, Pittsburgh, Pa.). For Western blot, 10-50 μg protein was resolved on 4-15% gradient polyacrylaminde gels (Criterion precast gel, Bio-Rad Laboratories, Hercules, Calif.), transferred to either PVDF or nitrocellulose membranes, incubated in blocking buffer (3% BSA or 5% non-fat dry milk in TBS) and then incubated with primary antibody (1:1000 dilution), washed and incubated with horseradish peroxidase- or fluorescence-conjugated secondary antibody (1:10000 dilution). Visualization was conducted using BioRad ChemiDoc instrumentation and software (Bio-Rad Laboratories, Hercules, Calif.) and band intensity was assessed using Image Lab 4.0 with correction for background and loading controls.
Background: Immunoblotting shows a protein as a band on a membrane.

Another test relates to 3T3L1 adipocytes. Kind of test: Fatty acid oxidation (oxygen consumption rate) in 3T3L1 adipocytes. Type of test: cell-based. As to conditions: for baseline OCR, area under the curve (FIG. 10A): control approximately 6000; for palmitate induced OCR, area under the curve (FIG. 10B): control approximately 52000.
A further test relates to HepG2 liver cells. Description: Lipid accumulation (Oil Red Staining) in HepG2 liver cells induced with high glucose plus insulin. In kind it is cell-based. As to conditions: 48 hours. Here is the method:
Cell Culture: HepG2 liver cells were seeded with 80,000 cells per well on 24-well tissue culture plates in low glucose (5 mM) DMEM containing 10% FBS and antibiotics. After 24 hours of attachment, lipid accumulation was induced by incubating cells with high glucose (25 mM) DMEM (10% FBS, 1% Pen-Strep) plus 100 nM insulin for 48 hours. Cells were then treated with indicated concentrations of Compound 2 for an additional 48 hours.
as §2
Lipid accumulation (Oil Red Staining): HepG2 liver cells were seeded and treated as described above. After 48 hours of treatment with Compound 2, lipid accumulation in HepG2 was measured via Oil Red Staining. Cells were washed with phosphate buffered saline (PBS) once, then cells were fixated with 10% formalin for 1 hour. After removal of the formalin, cells were washed with ddH2O twice, then washed with 60% isopropanol. Cells were dried completely. Cells were stained with Oil Red working solution (˜5 mM) for 25 minutes, then immediately washed with ddH2O four times, then dried completely again. Oil Red dye was eluted with 100% isopropanol and absorbance was read at 500 nm. Unstained cells plus isopropanol was used as a blank and subtracted from all readings. Data are represented as mean±SEM for each treatment group.

Test [4] concerns AMPK. Description: Western blot, P-AMPK/AMPK in C. elegans treated from L1 stage to adulthood. Type of test: in vivo. The settings on record: for ratio of P-AMPK/AMPK (FIG. 7B): 3 days, control approximately 0.18. Here is the method:
as §1, §3

[5] abbreviates: mild oxidative stress (500 uM Paraquat).

SMILES strings stand for the structures.

On to `CC(C)C[C@@H]1NC(N=C(N)N)=NC1=O` [Compound 2], for which the “lipid accumulation, fold change of control (FIG. 12)” value is reported as “approximately 0.45 fold change” in the test with C. elegans [1] (10 nM) and “approximately 0.35 fold change” in the test with C. elegans [1] (100 nM). Further, the “lipid accumulation, microscopic images (FIG. 13B)” value in the test on C. elegans [1] (100 nM) is on record as “significant reduction”. Further, the “reduction in lipid accumulation” value with C. elegans [1] (100 nM, L1 stage to adulthood (3 days), p<0.05) was determined as 60%. In addition, the “increase of maximum lifespan” value in the test on C. elegans [2] (setting [5]) is 14%. For the same compound, the entries for the “increase of median lifespan” value in the test on C. elegans [2] (setting [5]) and in the test on C. elegans [2] (normal conditions) were 30% and 18%, respectively. Also, the “ratio of phosphorylated/total AMPK (FIG. 5)” value in the test with AMPK [3] (10 nM) was “approximately 1.5”; in the test on AMPK [3] (100 nM) it was “approximately 2.0”. Besides, in the test on AMPK [3] (100 nM, p=0.0004), the “increase in the ratio of phosphorylated to total AMPK protein expression” value turned out to be 35%. For the same compound, the “increase of baseline OCR” value in the test on 3T3L1 adipocytes (10 nM, 48 hours of treatment) amounted to 50%. In addition, the “increase of palmitate stimulated OCR” value in the test with 3T3L1 adipocytes (10 nM, 48 hours of treatment) amounted to 43%. In addition, the “baseline OCR, area under the curve (FIG. 10A)” value is given as “approximately 7900 pMoles/min” with 3T3L1 adipocytes (10 nM) and “approximately 7000 pMoles/min” with 3T3L1 adipocytes (100 nM). For the same compound, the entries for the “palmitate induced OCR, area under the curve (FIG. 10B)” value with 3T3L1 adipocytes (10 nM) and with 3T3L1 adipocytes (100 nM) were “approximately 78000 pMoles/min” and “approximately 62000 pMoles/min”, respectively. Besides, the “effect on baseline and palmitate stimulated OCR” value in the test with 3T3L1 adipocytes (100 nM, compared with 10 nM) is recorded as “smaller effect”. Moreover, in the test with HepG2 liver cells (HepG2, all tested concentrations (1 nM to 10 uM)), the “effect on fat accumulation” value was “significantly reduced”. Also, the “reduction of fat accumulation (highest effect)” value with HepG2 liver cells (HepG2, high glucose (25 mM) DMEM plus 100 nM insulin, 10 nM, p<0.025) is reported as “up to 40%”. Besides, the figures for the “ratio of P-AMPK/AMPK (FIG. 7B)” value in the test with AMPK [4] (10 nM) and with AMPK [4] (100 nM) were “approximately 0.27” and “approximately 0.26”, respectively. Besides, in the test with AMPK [4] (L1 stage to adulthood (3 days), p=0.06), the “increase of P-AMPK/AMPK protein expression” value is on record as “approximately 50%”.
